Data from patent US4804684A, “Symmetrical O-substituted dioximes of benzo-fused β-diketocyclo-alkylenes, the processes for their preparation and their application as drugs” (Panmedica S.A., priority 1986, dated 1989).
Converted amounts (≈) assume the structure as drawn. Counter-ions that a name gives are not always drawn.

How the values were obtained:
[1] = test system: platelet-rich human plasma; platelet aggregation induced by ADP; experiment: Platelet aggregation (platelet-rich human plasma) induced in vitro by ADP; assay type: cell-based; details: platelet-rich human plasma, 300,000 platelets/cm^2, 2.0 μg/ml of ADP; read-out: IC50, inductor: ADP
Experimental: (§1) Study of the Effects on the Platelet Aggregation (Platelet-Rich Human Plasma) Induced in Vitro By: ADP, Collagen or Arachidonic Acid Blood samples from volunteer donors are treated and adjusted to a platelet concentration of 300,000/cm^2 and then incubated with different concentrations of the test products. Aggregation is induced by 2.0 μg/ml of ADP or by 10.0 μg/ml of collagen. The measurements are made using a Bryston-type aggregometer--or CHRONOLOG. The changes in optical density are noted and the values of the concentrations which cause a 50% inhibition are calculated.

[2] = test system: platelet-rich human plasma; platelet aggregation induced by collagen; experiment: Platelet aggregation (platelet-rich human plasma) induced in vitro by collagen; assay type: cell-based; details: platelet-rich human plasma, 300,000 platelets/cm^2, 10.0 μg/ml of collagen; read-out: IC50, inductor: collagen
Experimental: as §1

[3] = test system: isolated guinea-pig intestine; experiment: Antagonistic effects on isolated guinea-pig intestine (MAGNUS); details: 0.1 μg/ml
platelet aggregation = experiment: In vitro inhibition of platelet aggregation (BORN's method), induced by collagen or ADP; assay type: cell-based, animal and human; details: 100 μg/ml, aspirin as reference
Experimental: In vitro inhibition of platelet aggregation The inhibition of platelet aggregation is measured in vitro by BORN's method (Nature 4832, 927 (1962)), the aggregation being induced by collagen or ADP. […] The aggregation can also be induced in vitro by serotonin, arachidonic acid and norepinephrine. Furthermore, this inhibitory effect was observed on platelet-rich plasma (PRP) of animal origin and human origin.

| Structure (SMILES) | IC50 [1] [µg/mL] | IC50 [2] [µg/mL] | inhibitory effect on isolated guinea-pig intestine [3] | inhibition of platelet aggregation compared with aspirin (platelet aggregation) |
| --- | --- | --- | --- | --- |
| C=CCON=C1CC(=NOCC=C)c2ccccc2-c2ccccc21 [Example 1, 5,7 -Bis(Allyloxyimino)-6,7-Dihydro-(5H)-Dibenzo[a,c]Cycloheptene] | 650 (≈ 1960 µM) | 800 (≈ 2410 µM) |  |  |
| CON=C1CC(=NOC)c2ccccc2-c2ccccc21 [Example 2, 5,7-Bis(Methoxyimino)-6,7-Dihydro-(5H)-Dibenzo[a,c]Cycloheptene] |  | 800 (≈ 2850 µM) |  |  |
| CCON=C1CC(=NOCC)c2ccccc2-c2ccccc21 [Example 3, 5,7-Bis(Ethoxyimino)-6,7-Dihydro-(5H)-Dibenzo[a,c]Cycloheptene] | 620 (≈ 2010 µM) | 500 (≈ 1620 µM) |  |  |
| N#CCCCON=C1CC(=NOCCCC#N)c2ccccc2-c2ccccc21 [Example 5, 5,7-Bis(3-Cyanopropoxyimino)-6,7-Dihydro-(5H)-Dibenzo[a,c]Cycloheptene] | 420 (≈ 1090 µM) | 650 (≈ 1680 µM) |  |  |
| CC(C)(C)ON=C1CC(=NOC(C)(C)C)c2ccccc2-c2ccccc21 [Example 6, 5,7-Bis(Tert.-Butoxyimino)-6,7-Dihydro-(5H)-Dibenzo[a,c]Cycloheptene] | 460 (≈ 1260 µM) | 600 (≈ 1650 µM) |  |  |
| c1ccc2c(c1)C(=NOCC1CCCCC1)CC(=NOCC1CCCCC1)c1ccccc1-2 [Example 7, 5,7-Bis(Cyclohexylmethoxyimino)-6,7-Dihydro-(5H)-Dibenzo[a,c]Cycloheptene] | 600 (≈ 1350 µM) | 600 (≈ 1350 µM) |  |  |
| CCOC(=O)CON=C1CC(=NOCC(=O)OCC)c2ccccc2-c2ccccc21 [Example 10, 5,7-Bis(Ethoxycarbonylmethoxyimino)-6,7-Dihydro-(5H)-Dibenzo[a,c]Cycloheptene] | 400 (≈ 942 µM) | 650 (≈ 1530 µM) |  |  |
| CC(C)(C)OC(=O)CON=C1CC(=NOCC(=O)OC(C)(C)C)c2ccccc2-c2ccccc21 [Example 11, 5,7-Bis(Tert.-Butoxycarbonylmethoxyimino)-6,7-Dihydro-(5H)-Dibenzo[a,c]Cycloheptene] | 200 (≈ 416 µM) | 320 (≈ 666 µM) |  |  |
| O=C(O)CON=C1CC(=NOCC(=O)O)c2ccccc2-c2ccccc21 [Example 13, 5,7-Bis(Hydroxycarbonylmethoxyimino)-6,7-Dihydro-(5H)-Dibenzo[a,c]Cycloheptene] | 400 (≈ 1090 µM) | 450 (≈ 1220 µM) |  |  |
| Cl.Cl.c1cncc(CON=C2CC(=NOCc3cccnc3)c3ccccc3-c3ccccc32)c1 [Example 14, 5,7-Bis(pyridin-3-ylmethoxyimino)-6,7-dihydro-(5H)-dibenzo[a,c]cycloheptene dihydrochloride] | 460 | 600 | still substantial |  |
| Cl.Cl.c1ccc2c(c1)C(=NOCCN1CCCCC1)CC(=NOCCN1CCCCC1)c1ccccc1-2 [Example 20, 5,7-Bis(Piperidin-1-ylethoxyimino)-6,7-Dihydro-(5H)-Dibenzo[a,c]Cycloheptene Dihydrochloride] | 80 | 120 |  | comparable or even superior to aspirin |
| c1ccc2c(c1)C(=NOCCN1CCOCC1)CC2=NOCCN1CCOCC1 [Example 23, 1,3-Bis(2-Morpholinoethoxyimino)-(1H)-Indene-(2H) Dihydrochloride] | 420 | 350 |  |  |
| COc1ccc(C2C(=NOCCN3CCCCC3)c3ccccc3C2=NOCCN2CCCCC2)cc1 (stereo not shown) [Example 26, 1,3-Bis(2-Piperidin-1-ylethoxyimino-2-(4-Methoxyphenyl-(1H)-Indene-(2H) Dihydrochloride] | 18 | 24 |  | comparable or even superior to aspirin |

Continued, in another order:

| IC50 [1] [µg/mL] | IC50 [2] [µg/mL] | Structure (SMILES) | inhibitory effect on isolated guinea-pig intestine [3] | inhibition of platelet aggregation compared with aspirin (platelet aggregation) |
| --- | --- | --- | --- | --- |
| 600 (≈ 1780 µM) | 420 (≈ 1250 µM) | CCCON=C1CC(=NOCCC)c2ccccc2-c2ccccc21 [Example 4, 5,7-Bis(n-Propoxyimino)-6,7-Dihydro-(5H)-Dibenzo[a,c]Cycloheptene] |  |  |
| 650 (≈ 1500 µM) | 800 (≈ 1850 µM) | c1ccc(CON=C2CC(=NOCc3ccccc3)c3ccccc3-c3ccccc32)cc1 [Example 8, 5,7-Bis(Benzyloxyimino)-6,7-Dihydro-(5H)-Dibenzo[a,c]Cycloheptene] |  |  |
| 600 (≈ 1300 µM) | 600 (≈ 1300 µM) | c1ccc(CCON=C2CC(=NOCCc3ccccc3)c3ccccc3-c3ccccc32)cc1 [Example 9, 5,7-Bis(2-Phenylethoxyimino)-6,7-Dihydro-(5H)-Dibenzo[a,c]Cycloheptene] |  |  |
| 450 (≈ 936 µM) | 670 (≈ 1390 µM) | CCOC(=O)CCCON=C1CC(=NOCCCC(=O)OCC)c2ccccc2-c2ccccc21 [Example 12, 5,7-Bis(Ethoxycarbonylpropoxyimino)-6,7-Dihydro-(5H)-Dibenzo[a,c]Cycloheptene] |  |  |
| 24 | 40 | CCN(CC)CCON=C1c2ccccc2C(=NOCCN(CC)CC)C1c1ccccc1 (stereo not shown) [Example 21, 1,3-Bis(2-Diethylaminoethoxyimino)-2-Phenyl-(1H)-Indene-(2H) Dihydrochloride] |  | comparable or even superior to aspirin |
| 160 | 145 | CCN(CC)CCON=C1CC(=NOCCN(CC)CC)c2ccccc21 [Example 22, 1,3-Bis(2-Diethylaminoethoxyimino)-(1H)-Indene-(1H) Dihydrochloride] | still substantial |  |
| 210 | 340 | c1ccc(C2C(=NOCCN3CCOCC3)c3ccccc3C2=NOCCN2CCOCC2)cc1 (stereo not shown) [Example 24, 1,3-Bis(2-Morpholinoethoxyimino)-2-Phenyl-(1H)-Indene-(2H) Dihydrochloride] |  | comparable or even superior to aspirin |
| 20 | 38 | c1ccc(C2C(=NOCCN3CCCCC3)c3ccccc3C2=NOCCN2CCCCC2)cc1 (stereo not shown) [Example 25, 1,3-Bis(2-Piperidin-1-ylethoxyimino)-2-Phenyl-(1H)-Indene-(2H) Dihydrochloride] |  | comparable or even superior to aspirin |
| 28 | 40 | CCN(CC)CCON=C1c2ccccc2C(=NOCCN(CC)CC)C1c1ccc(Cl)cc1 (stereo not shown) [Example 27, 1,3-Bis(2-Diethylaminoethoxyimino)-2-(4-Chlorophenyl)-(1H)-Indene-(2H) Dihydrochloride] |  | comparable or even superior to aspirin |
| 40 | 62 | CCN(CC)CCON=C1c2ccccc2C(=NOCCN(CC)CC)C1c1ccc(C)cc1 (stereo not shown) [Example 28, 1,3-Bis(2-Diethylaminoethoxyimino)-2-(4-Methylphenyl)-(1H)-Indene-(2H) Dihydrochloride] |  | comparable or even superior to aspirin |
| 100 (≈ 202 µM) | 110 (≈ 222 µM) | CCN(CC)CCON=C1c2ccccc2C(=NOCCN(CC)CC)C1c1ccc2c(c1)OCO2 (stereo not shown) [Example 29, 1,3-Bis(2-Diethylaminoethoxyimino)-2-(3,4-Methylenedioxyphenyl)-(1H)-Indene-(2H) Dihydochloride] |  | comparable or even superior to aspirin |
| 210 (≈ 495 µM) | 150 (≈ 353 µM) | CCOC(=O)CON=C1c2ccccc2C(=NOCC(=O)OCC)C1c1ccccc1 (stereo not shown) [Example 30, 1,3-Bis(Ethoxycarbonylmethoxyimino)-2-Phenyl-(1H)-Indene-(2H)] |  | comparable or even superior to aspirin |
|  | 250 (≈ 679 µM) | O=C(O)CON=C1c2ccccc2C(=NOCC(=O)O)C1c1ccccc1 (stereo not shown) [Example 31, 1,3-Bis(Hydroxycarbonylmethoxyimino)-2-Phenyl-(1H)-Indene-(2H)] |  |  |
| 18 | 20 | CCN(CC)CCON=C1c2ccccc2-c2ccccc2C(=NOCCN(CC)CC)C1c1ccccc1.Cl.Cl (stereo not shown) [Example 32, 5,7-Bis(2-Diethylaminoethoxyimino)-6-Phenyl-6,7-Dihydro-(5H)-Dibenzo[a,c]Cycloheptene Dihydrochloride] |  | comparable or even superior to aspirin |
| 22 | 12 | CCN(CC)CCON=C1c2ccccc2-c2ccccc2C(=NOCCN(CC)CC)C1c1ccc(F)cc1.Cl.Cl (stereo not shown) [Example 33, 5,7-Bis(2-Diethylaminoethoxyimino)-6-(4-Fluorophenyl)-6,7-Dihydro-(5H)-Dibenzo[a,c]Cycloheptene Dihydrochloride] |  | comparable or even superior to aspirin |
| 24 | 40 | CCN(CC)CCON=C1c2ccccc2-c2ccccc2C(=NOCCN(CC)CC)C1c1ccc(Cl)cc1.Cl.Cl (stereo not shown) [Example 34, 5,7-Bis(2-Diethylaminoethoxyimino)-6-(4-Chlorophenyl)-6,7-Dihydro-(5H)-Dibenzo[a,c]Cycloheptene Dihydrochloride] |  | comparable or even superior to aspirin |
| 16 | 25 | CCN(CC)CCON=C1c2ccccc2-c2ccccc2C(=NOCCN(CC)CC)C1c1ccc(OC)cc1.Cl.Cl (stereo not shown) [Example 35, 5,7-Bis(Diethylaminoethoxyimino)-6-(4-Methoxyphenyl)-6,7-Dihydro-(5H)-Dibenzo[a,c]Cycloheptene Dihydrochloride] |  | comparable or even superior to aspirin |
